Our source for the logD values is US9975881B2, “Compound” (ASTRAZENECA AB, priority 2011, dated 2018).

The data set is described as follows: Distribution coefficient at pH 7.4 (Log D7.4), 1-octanol/phosphate buffer. It is filed as physicochemical. To be noted: 1-octanol / 0.02 M phosphate buffer pH 7.4. As for the experimental part: Measurement of Distribution Coefficient at pH 7.4 (Log D7.4)
Compounds of interest (1 mg) were dispensed into individual 1-mL polypropylene vials, held within a 96-well plate along with 1-octanol (700 μL), and presaturated with 0.02 M phosphate buffer (pH 7.4). The plate was then shaken overnight followed by centrifugation (800 g for 15 min) to sediment any undissolved solids. Up to 24 mixtures of 10 compounds (or less) were then prepared by pooling the 1-octanol solutions (100 μL) into a plate of 12-mL glass sample tubes. […] The pooling of compounds was performed robotically and controlled using automatically generated bespoke work lists. If a mixture contained less than 10 compounds, then 1-octanol (presaturated with 0.02 M phosphate buffer [pH 7.4]) was added to make up the total volume of the 1-octanol phase to 1 mL. 1-Octanol-saturated phosphate buffer (0.02 M, pH 7.4, 2 mL) was then added to each mixture before shaking (450 rpm for 30 min) and centrifugation (800 g for 15 min). The final 1-octanol and aqueous phases of each partition mixture were then robotically separated. […] Log D7.4 was calculated from the ratio of one of the 1-octanol relative concentrations to the interpolated aqueous relative concentration after correcting for the extent of dilution of both the 1-octanol and aqueous solutions.

In the case of `CC1CN(S(=O)(=O)Nc2cc(O[C@H](C)[C@@H](O)CO)nc(SCc3ccc(F)cc3)n2)C1` [Example 1, N-(6-((2R,3S)-3,4-Dihydroxybutan-2-yloxy)-2-(4-fluorobenzylthio)pyrimidin-4-yl)-3-methylazetidine-1-sulfonamide], the logD (commonly lipophilicity at a set pH, counting ionised and neutral species) was 1.9.
